Square brackets hold non-standard residues; d marks the D form. Ends that are not written are not given here. Phe(4-CF3) = N[C@@H](Cc1ccc(C(F)(F)F)cc1)C(=O)O
Assays:
[1] = system: free fatty acid receptor 2, FFA2; settings: cited from earlier work
Text: Whether NT binds to the orthosteric binding pocket of the intermediate state or occupies different conformations in distinct pockets remains to be fully answered. […] Intermediate-state binding pockets have been attributed to a sequential activation mechanism of the free fatty acid receptor 2, FFA2, by the previously considered allosteric modulator, 4-CMTB[62]. 4-CMTB binds to the orthoste ...

NTS1 = settings: cited from earlier work
Text: The ECL2 of many GPCRs forms a lid over the ligand-bound orthosteric binding pocket of the receptor via interaction with the N-terminal region or ECL3 of the receptor, which can increase the affinity of the ligand by slowing down its dissociation rate[35],[37]. Although such a formation has not been confirmed experimentally for NTS1, all structures published to date on the complex of NT with NTS1 show close contacts between the N-terminal region and the ECL2 of NTS1 (PDB: 4XEE, 6YVR, 4BUO)[21],[33],[34]. However, the structure of these parts of NTS1 in the apo-state or when complexed with smal ...

enNTS1-R213 = experiment: Ligand-observed 19F NMR / 19F STD, enNTS1-R213 complex; type: binding, rat; settings: 298 K, pH 7.4
Experimental: The peptide-receptor complex was formed by addition of a 10-fold excess of peptide to receptor. The solution was incubated on ice for one hour, followed by buffer exchange to remove free peptide in 50 mM potassium phosphate pH 7.4, 100 mM NaCl, 0.05% DDM, 50 µM EDTA, 0.02% NaN3. 100 μM of freshly formed complexes were mixed with 10 μM free receptor to ensure excess receptor. The samples were adjusted to 10% D2O, 500 μM DSS and 20 μM TFA as lock nuclei, ^1H and ^19F references, respectively.
For NMR experiments in the presence of Gαiq, enNTS1-R213 was incubated on ice with 5-fold Y11tfmF-NT8-13 over receptor for 30 min and then 5-fold Gαiq over receptor with incubation for another 30 min. […]
^19F saturation transfer difference (STD) experiments were acquired using the STDDiff pulse sequence from the Bruker library. […] These were interleaved with equivalent off-resonance spectra, where the offset was set equidistant to the monitored and saturated peaks. The intensities of the monitored peak in the presence of on-resonance saturation were normalized against the spectra collected in the absence of saturation and subtracted from the intensities in the presence of the equidistant off-resonance spectra to account for off-resonance effects. […]

enNTS1 [2] = experiment: Ligand-observed 19F NMR / 19F STD, enNTS1 complex; type: binding, rat; settings: 298 K, pH 7.4
wt-rNTS1 [3] = experiment: G protein BRET assay, wt-rNTS1; type: cell-based, rat; settings: HEK293T cells, n = 3
Experimental: (§1) 500,000 HEK293T cells were seeded per well in a 6-well plate in complete DMEM (10% FBS, 1% L-Glutamine, 1% penicillin-streptomycin). Cells were transfected the following day with a solution of Opti-mem and lipofectamine 2000 at a quantity of 1 µL/1 µg of DNA. For β-arrestin-2 recruitment assay cells were co-transfected with 250 ng of either pcDNA 3.1 zeo-HA-FLAG-wt-rNTS1-nLuc or pcDNA 3.1 zeo-HA-FLAG-rNTS1-R213L-nLuc and with 600 ng of pcDNA human β-arrestin-2-Venus. In G protein BRET assays, cells were co-transfected with 750 ng of pCSC-rNTS1-IRES-mCherry, pCSC-rNTS1-R213L-IRES-mCherry or pCSC-enNTS1-IRES-mCherry and with 250 ng of Gαi (for enNTS1) or Gq (for rNTS1 and rNTS1-R213L) BRET biosensor. […] The plate was then incubated at 37 °C for 10 min in a PHERAstar® FSX microplate reader (BMG LABTECH). Dual luminescence of 450/535 nm was then measured for 3 min before manually adding 10 µL of 10x ligand concentration or vehicle to respective wells before completing the time course measurement. The BRET ratio was calculated as Venus emission to nLuc emission. […] Concentration–response curves were calculated by first integrating the area under the BRET ratio over time plot using the Area Under the Curve function and then plotted against ligand concentration. […]

enNTS1 [4] = experiment: Cell surface competition binding assay, enNTS1; parameters: species or system rat; settings: HEK293F cells, competition with 5 nM Cy5-NT8-13, 1 h, room temperature, flow cytometry, n = 4
Experimental: 100,000 HEK293F cells (Invitrogen) stably expressing receptor and the cytosolic mCherry fluorophore were suspended in complete phenol red free DMEM (10% FBS, 1% L-Glutamine, 1% penicillin-streptomycin) and were added to the relevant ligand concentrations in the presence of 5 nM Cy5-NT8-13 for enNTS1 and wt-rNTS1 or 2 nM FAM-NT8-13 for rNTS1-R213L. Cells were then gently agitated on an orbital shaker in the dark for 1 h at room temperature for ligand binding to reach a state of equilibrium. The mean fluorescence intensity of bound FAM-NT8-13 and Cy5-NT8-13 was measured with a CytoflexS (Beckman-Coulter) flow cytometer using the 525/40 and 660/20 filter, respectively. Data was then analysed using the One site – Fit Ki function on GraphPad Prism (version: 9.3.1, Graphpad Software, San Diego, CA). The data for enNTS1 and wt-NTS1 are mean of four replicates (n = 4) and the assays with rNTS1-R213L are performed in triplicates (n = 3).
Supplementary Figure 3. Functional characterization of the NT peptides used in this study. The cell-surface binding of peptides to (a) wt-rNTS1 and enNTS1 (b) rNTS1-R213L. The competition binding curves are for NT8-13 (black circles) , Y11tfmF-NT8-13 (red triangles).
Cy5-labellled NT8-13 and FAM -labelled NT8-13 was used as a fluorescent competitor for investigating the binding. […]

wt-rNTS1 [5] = experiment: β-arrestin-2 recruitment BRET assay, wt-rNTS1; type: cell-based, rat; settings: HEK293T cells, β-arrestin-2-Venus, 37 °C, n = 3
Experimental: as §1

[6] = 19F NMR interaction with DDM micelles; type: physicochemical; settings: 298 K, Supplementary Fig. 5b
Experimental: All NMR experiments were performed on a Bruker 700 MHz Avance IIIHD spectrometer running Topspin 3.2.7 and equipped with a ^1H/^13C/^15N triple-resonance TCI cryoprobe, where the proton channel was tuned to ^19F, ~658 MHz. The 1D spectra were collected in a pulse-acquire manner at 298 K, with the carrier frequency set at −65 ppm. 512 to 2048 scans were collected per spectrum with 16 K of data points and a spectral width of 49 ppm. 2680 scans were collected for the sample of Y11tfmF-NT8-13 in complex with enNTS1 in the presence of Gαiq. The spectrum on the complex of ^19F-labelled peptides and ^19F-labelled receptor were processed in Topspin vs3.4 using, respectively, 50 Hz and 10 Hz line broadening and zero filling prior to Fourier transformation. Spectral deconvolution was performed in MNova (version: 10.0.2-15465, Mestrelab Research).

[7] = target: T1, wt-rNTS1 (wild-type rat neurotensin receptor 1) on HEK293F cells (rat, UniProt P20789 1-424); experiment: flow cytometry on cells; cell surface competition: 100,000 HEK293F cells stably expressing receptor, unlabelled ligand varied against 5 nM Cy5-NT8-13, 1 h at room temperature, mCherry-positive single cells, One site - Fit Ki; settings: one partner purified
T1 construct: also called wt-NTS1; source: HEK293F cells stably expressing receptor and cytosolic mCherry
T1 sequence (P20789 whole entry): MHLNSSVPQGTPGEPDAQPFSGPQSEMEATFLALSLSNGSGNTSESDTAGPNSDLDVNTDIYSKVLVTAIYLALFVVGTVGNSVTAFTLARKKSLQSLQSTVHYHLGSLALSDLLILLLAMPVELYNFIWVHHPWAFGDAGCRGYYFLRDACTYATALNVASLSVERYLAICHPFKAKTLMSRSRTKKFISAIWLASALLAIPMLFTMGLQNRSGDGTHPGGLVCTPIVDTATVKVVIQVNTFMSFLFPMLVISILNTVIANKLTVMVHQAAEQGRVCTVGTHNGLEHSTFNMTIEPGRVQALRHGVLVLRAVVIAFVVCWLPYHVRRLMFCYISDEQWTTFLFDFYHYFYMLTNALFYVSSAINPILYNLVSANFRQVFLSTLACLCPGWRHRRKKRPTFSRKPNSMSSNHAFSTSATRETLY

## CC(C)C(C(=O)Nc1nccs1)c1ccc(Cl)cc1 (centres unmarked) [4-CMTB]
[1]
  binding and signalling at FFA2: binds to the orthosteric binding pocket of FFA2, where it primarily initiates downstream orthosteric signalling followed by diffusion into an allosteric pocket

## COc1cccc(OC)c1-c1cc(C(=O)N[C@@H](CC(C)C)C(=O)O)nn1-c1ccnc2cc(Cl)ccc12 [RTI-3a]
NTS1
  pharmacological class at NTS1: partial agonist

## COc1cccc(OC)c1-c1cc(C(=O)NC2(C(=O)O)C3CC4CC(C3)CC2C4)nn1-c1ccnc2cc(Cl)ccc12 (centres unmarked) [SR48692]
NTS1
  pharmacological class at NTS1: inverse agonists

## COc1cccc(OC)c1-c1cc(C(=O)NC2(C(=O)O)C3CC4CC(C3)CC2C4)nn1-c1ccc(C(=O)N(C)CCCN(C)C)cc1C(C)C (centres unmarked) [SR142948A]
NTS1
  pharmacological class at NTS1: inverse agonists

## Y11tfmF-NT8-13: truncated version of 19F-NT (RRP[Phe(4-CF3)]IL)
enNTS1-R213
  exchange rate constant k12 (S1 to S2): 0.14 s⁻¹
  exchange rate constant k21 (S2 to S1): 0.26 s⁻¹
enNTS1 [2]
  exchange rate constant from S1 to S2, k12: 1.23 s⁻¹
  exchange rate constant from S2 to S1, k21: 0.08 s⁻¹

## Y11tfmF-NT: fluorinated analogue of NT, Tyr11 substituted with para-trifluoromethyl-phenylalanine (ELYENKPRRPFIL; para-trifluoromethyl-phenylalanine (tfmF) at position 11; pyroglutamate (pE) at position 1 as in NT)
wt-rNTS1 [3]; BRET assays
  activation of wt-rNTS1: can fully activate wt-rNTS1
wt-rNTS1 [3]; Gq BRET biosensor, 37 °C
  efficacy in G protein BRET assay: equally efficacious
enNTS1 [4]
  affinity for enNTS1 (effect of CF3 moiety): unaffected
wt-rNTS1 [5]
  efficacy in β-arrestin recruitment BRET assay: equally efficacious
[6]
  effect of DDM on 19F NMR signal of the peptide: not perturbed in the presence of DDM

B1: Y11tfmF-NT (peptide)
peptide: ELYENKPRRPFIL
modifications: para-trifluoromethyl-phenylalanine (tfmF) at position 11; pyroglutamate (pE) at position 1 as in NT
notes: in this molecule Tyr11 is replaced by tfmF (see substitutions); numbers count on: the mature neurotensin peptide; The new residue is the unnatural amino acid para-trifluoromethyl-phenylalanine, written F in the substitution row; also called 19F-NT; fluorinated analogue of NT; source: synthetic peptide (Fmoc solid phase synthesis, reverse-phase HPLC)
[7]
  fold reduction of affinity against NT: 100 fold

Source: PMC10710507 (Nature Communications, 2023)
